Here are results for 14 compounds from US9839642B2, “Beta-tetrazolyl-propionic acids as metallo-beta-lactamase inhibitors” (priority 2014, dated 2017).

One assay addresses IMP-1 (Serratia marcescens, UniProt P52699). Put plainly: Enzyme activity: determination of IC50, fluorescence assay with CCF2-FA substrate. It counts as biochemical. Conditions: IMP-1 enzyme 2 pM, CCF2-FA 1.25 μM, 2 hours at 25° C.; read-out: IMP1 IC50. Put shortly: (§1)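 Final enzyme levels differed by target: 1 pM NDM-1, 2 pM IMP-1, 30 pM VIM-1. Each was incubated 2 hours at 25° C with test compound and 1.25 μM CCF2-FA, and 460 nm fluorescence (405 nm excitation) was fitted by 4-parameter curve to obtain IC50.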

In another assay the target is VIM-1 (Pseudomonas aeruginosa, UniProt A0A0F7KYQ8). The description is as above. It is filed as biochemical. Particulars: VIM-1 enzyme 30 pM, CCF2-FA 1.25 μM, 2 hours at 25° C.; read-out: VIM1 IC50. Put shortly:
as §1

The next assay deals with NDM-1 (Klebsiella pneumoniae, UniProt C7C422). The assay is described as above. It is filed as biochemical. Conditions: NDM-1 enzyme 1 pM, CCF2-FA 1.25 μM, 2 hours at 25° C.; read-out: NDM1 IC50. The method, boiled down: as §1
Chain of NDM-1 (C7C422 29-270, looked up, species assumed): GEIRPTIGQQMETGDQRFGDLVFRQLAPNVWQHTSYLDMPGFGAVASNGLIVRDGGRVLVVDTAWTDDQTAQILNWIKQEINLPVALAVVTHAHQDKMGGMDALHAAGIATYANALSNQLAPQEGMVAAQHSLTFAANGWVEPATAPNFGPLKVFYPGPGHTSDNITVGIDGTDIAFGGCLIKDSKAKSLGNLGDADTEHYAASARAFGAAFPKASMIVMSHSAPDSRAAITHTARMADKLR
The subject of assay [1] is Escherichia coli expressing NDM-1 (CLB30016). Put plainly: Antibiotic potentiation activity: synergistic concentration (MITC95) with imipenem, growth by OD600. It counts as cell-based. Particulars: E. coli CLB30016 (NDM-1), 95% inhibition of growth. Put shortly: (§2)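 Colonies from overnight agar plates (35 °C) were suspended in saline and diluted 1:100 into 1.1× CAMHB. Inhibitor (final 200 μM to 0.195 μM) was combined with imipenem at 1 or 4 μg/ml, incubated 22–24 h at 35 °C, and absorbance read; MITC95 is the lowest inhibitor concentration giving 95% growth inhibition.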

In assay [2] the test system is Serratia marcescens expressing IMP-1 (CL5741). Described as above. Conditions: S. marcescens CL5741 (IMP-1), 95% inhibition of growth. It counts as cell-based. Put shortly: as §2
Assay [3] relates to Klebsiella pneumoniae expressing VIM-1 (IHMA599644). Described as above. It is filed as cell-based. Conditions: K. pneumoniae IHMA599644 (VIM-1), 95% inhibition of growth. The method, boiled down:
as §2

pIC50: −log10 of the molar value.

Chain of IMP-1 (P52699 19-246, looked up, species assumed): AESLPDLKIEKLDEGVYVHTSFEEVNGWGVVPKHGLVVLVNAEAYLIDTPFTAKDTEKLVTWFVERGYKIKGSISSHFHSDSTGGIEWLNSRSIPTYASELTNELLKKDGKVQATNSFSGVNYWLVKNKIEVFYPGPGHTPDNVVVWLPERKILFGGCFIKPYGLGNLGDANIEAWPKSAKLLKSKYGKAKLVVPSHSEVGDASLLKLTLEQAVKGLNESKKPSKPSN

On to `CCC[C@H](C(=O)[O-])[C@H](Cc1cc[n+](C)cc1)c1nnn[nH]1` [Example 417, (S)-2-((S)-2-(1-methylpyridin-1-ium-4-yl)-1-(1H-tetrazol-5-yl)ethyl)pentanoate], for which the results for the pIC50 at IMP-1, on VIM-1 and on NDM-1 were 4.96, 7.35 and 5.89, respectively. The “NDM1 EC30016 MITC95” value in assay [1] amounted to 4.688 µM. In assay [2], the “IMP1 SM5741 MITC95” value was found to be 200 µM. Moreover, in assay [3], the “VIM1 KP599644 MITC95” value turned out to be 9.375 µM.
Take `CCC[C@H](C(=O)[O-])[C@H](Cc1ccc(C2CC[N+](C)(C)C2)cc1)c1nnn[nH]1` (stereo partly drawn) [Example 418, (2S)-2-((1S)-2-(4-(1,1-dimethylpyrrolidin-1-ium-3-yl)phenyl)-1-(1H-tetrazol-5-yl)ethyl)pentanoate]: the pIC50 (usually the IC50 on a negative log10 scale, so that one unit is a factor of ten) at IMP-1 is 5.70; at VIM-1, 7.51; at NDM-1, 6.39. Further, in assay [1], the “NDM1 EC30016 MITC95” value worked out at 18.75 µM. The “IMP1 SM5741 MITC95” value in assay [2] was 37.5 µM. In assay [3], the “VIM1 KP599644 MITC95” value stood at 25 µM.
On to `CCC[C@H](C(=O)[O-])[C@H](Cc1ccc(C[N+](C)(C)C)cc1)c1nnn[nH]1` [Example 419, (S)-2-((S)-1-(1H-tetrazol-5-yl)-2-(4-((trimethylammonio)methyl)phenyl)ethyl)pentanoate], for which the results for the pIC50 at IMP-1, on VIM-1 and at NDM-1 were 5.23, 8.26 and 6.06, respectively. Moreover, the “NDM1 EC30016 MITC95” value in assay [1] came out at 6.25 µM. In addition, in assay [2], the “IMP1 SM5741 MITC95” value is 50 µM. Further, in assay [3], the “VIM1 KP599644 MITC95” value was determined as 12.5 µM.
As to `CC(C)(C)[C@H](C(=O)O)C(Cc1ccc(N)nc1)c1nnn[nH]1` (stereo partly drawn) [Example 420, (2R,3S)-4-(6-aminopyridin-3-yl)-2-(tert-butyl)-3-(1H-tetrazol-5-yl)butanoic acid], the pIC50 is 7.29 at IMP-1, 7.72 on VIM-1 and 7.14 at NDM-1. Further, the “NDM1 EC30016 MITC95” value in assay [1] was found to be 0.3906 µM. Further, the “IMP1 SM5741 MITC95” value in assay [2] stood at 1.563 µM. Moreover, in assay [3], the “VIM1 KP599644 MITC95” value is 2.344 µM.
`CC(C)(C)[C@H](C(=O)O)[C@H](Cc1ccc(O)nc1)c1nnn[nH]1` [Example 421, (2R,3S)-2-(tert-butyl)-4-(6-hydroxypyridin-3-yl)-3-(1H-tetrazol-5-yl)butanoic acid]: the values for the negative-log IC50 (pIC50) on IMP-1, on VIM-1 and at NDM-1 were 6.81, 7.60 and 6.80, respectively. Moreover, the “NDM1 EC30016 MITC95” value in assay [1] came out at 25 µM. Also, the “IMP1 SM5741 MITC95” value in assay [2] came out at 100 µM. Moreover, the “VIM1 KP599644 MITC95” value in assay [3] turned out to be 25 µM.
Take `CC(C)(C)[C@H](C(=O)O)[C@H](Cc1ccc(NC(=N)N)nc1)c1nnn[nH]1` [Example 422, (2R,3S)-2-(tert-butyl)-4-(6-guanidinopyridin-3-yl)-3-(1H-tetrazol-5-yl)butanoic acid]: the figures for the pIC50 on IMP-1, at VIM-1 and on NDM-1 were 6.98, 8.40 and 6.64, respectively. Moreover, the “NDM1 EC30016 MITC95” value in assay [1] was found to be 12.5 µM. Moreover, in assay [2], the “IMP1 SM5741 MITC95” value was 25 µM. In addition, in assay [3], the “VIM1 KP599644 MITC95” value stood at 6.25 µM.
For `CC(C)(C)[C@H](C(=O)O)[C@@H](Cc1cccc2sc(Br)nc12)c1nnn[nH]1` [Example 423, (2R,3R)-4-(2-bromobenzo[d]thiazol-4-yl)-2-(tert-butyl)-3-(1H-tetrazol-5-yl)butanoic acid], the figures for the pIC50 at IMP-1, on VIM-1 and on NDM-1 were 8.56, 9.00 and 8.91, respectively. For the same compound, the “NDM1 EC30016 MITC95” value in assay [1] came to 12.5 µM. In addition, the “IMP1 SM5741 MITC95” value in assay [2] was determined as 25 µM. Also, the “VIM1 KP599644 MITC95” value in assay [3] came to 50 µM.
With `CC(C)(C)[C@H](C(=O)O)[C@H](Cc1cccc2sc(N)nc12)c1nnn[nH]1` [Example 424, (2R,3S)-4-(2-aminobenzo[d]thiazol-4-yl)-2-(tert-butyl)-3-(1H-tetrazol-5-yl)butanoic acid], the pIC50 at IMP-1 was 8.03; at VIM-1, 7.97; on NDM-1 it was 8.57. In assay [1], the “NDM1 EC30016 MITC95” value came to 12.5 µM. For the same compound, in assay [2], the “IMP1 SM5741 MITC95” value came to 25 µM. Further, in assay [3], the “VIM1 KP599644 MITC95” value came to 200 µM.
`CCC[C@H](C(=O)O)[C@H](Cc1ccc(Br)s1)c1nnn[nH]1` [Example 425, (S)-2-((S)-2-(5-bromothiophen-2-yl)-1-(1H-tetrazol-5-yl)ethyl)pentanoic acid]: the figures for the pIC50 at IMP-1, on VIM-1 and on NDM-1 were 6.55, 8.44 and 6.98, respectively. In assay [1], the “NDM1 EC30016 MITC95” value came to 12.5 µM. Also, in assay [2], the “IMP1 SM5741 MITC95” value stood at 25 µM. Moreover, in assay [3], the “VIM1 KP599644 MITC95” value came out at 12.5 µM.
Take `CC(C)(C)C(C(=O)O)[C@H](Cc1ccc(Br)s1)c1nnn[nH]1` (stereo partly drawn) [Example 426, (3S)-4-(5-bromothiophen-2-yl)-2-(tert-butyl)-3-(1H-tetrazol-5-yl)butanoic acid]: the pIC50 on IMP-1 was 7.55; on VIM-1, 7.31; on NDM-1, 6.85. Besides, the “NDM1 EC30016 MITC95” value in assay [1] came to 12.5 µM. The “IMP1 SM5741 MITC95” value in assay [2] amounted to 2.344 µM. For the same compound, in assay [3], the “VIM1 KP599644 MITC95” value was determined as 150 µM.
With `CC(C)(C)[C@H](C(=O)O)[C@H](Cc1ccc(NCCN)nc1)c1nnn[nH]1.O=C(O)C(F)(F)F` [Example 427, 2-((5-((2S,3R)-3-carboxy-4,4-dimethyl-2-(1H-tetrazol-5-yl)pentyl)pyridin-2-yl)amino)ethan-1-aminium 2,2,2-trifluoroacetate], the pIC50 on IMP-1 was 6.47; on VIM-1, 7.75; on NDM-1 it was 6.92. Besides, in assay [1], the “NDM1 EC30016 MITC95” value came to 1.563 µM. For the same compound, the “IMP1 SM5741 MITC95” value in assay [2] came to 3.125 µM. Further, the “VIM1 KP599644 MITC95” value in assay [3] was 9.375 µM.
For the compound `CC(C)(C)[C@H](C(=O)O)[C@H](Cc1ccc(C2=CCNC2)nc1)c1nnn[nH]1.O=C(O)C(F)(F)F` [Example 429, 3-(5-((2S,3R)-3-carboxy-4,4-dimethyl-2-(1H-tetrazol-5-yl)pentyl)pyridin-2-yl)-2,5-dihydro-1H-pyrrol-1-ium 2,2,2-trifluoroacetate], the pIC50 is 6.21 on IMP-1, 7.62 on VIM-1 and 6.11 on NDM-1. The “NDM1 EC30016 MITC95” value in assay [1] is 12.5 µM. Also, the “IMP1 SM5741 MITC95” value in assay [2] was 18.75 µM. Besides, the “VIM1 KP599644 MITC95” value in assay [3] is 25 µM.
Turning to `CC(C)(C)C(C(=O)O)[C@H](Cc1ccc(C2CCNC2)nc1)c1nnn[nH]1.O=C(O)C(F)(F)F` (stereo partly drawn) [Example 430, 3-(5-((2S)-3-carboxy-4,4-dimethyl-2-(1H-tetrazol-5-yl)pentyl)pyridin-2-yl)pyrrolidin-1-ium 2,2,2-trifluoroacetate], the negative-log IC50 (pIC50) is 6.26 on IMP-1, 7.28 at VIM-1 and 6.21 at NDM-1. Also, the “NDM1 EC30016 MITC95” value in assay [1] was determined as 12.5 µM. For the same compound, the “IMP1 SM5741 MITC95” value in assay [2] was 25 µM. In addition, the “VIM1 KP599644 MITC95” value in assay [3] came to 25 µM.
In the case of `CC(C)(C)[C@H](C(=O)O)[C@H](Cc1ccc(C2CCNC2)cc1)c1nnn[nH]1.O=C(O)C(F)(F)F` (stereo partly drawn) [Example 431, 3-(4-((2S,3R)-3-carboxy-4,4-dimethyl-2-(1H-tetrazol-5-yl)pentyl)phenyl)pyrrolidin-1-ium 2,2,2-trifluoroacetate], the pIC50 on IMP-1 was 7.49; on VIM-1 it was 7.78; on NDM-1, 7.14. Also, the “NDM1 EC30016 MITC95” value in assay [1] was 6.25 µM. Moreover, the “IMP1 SM5741 MITC95” value in assay [2] was 2.344 µM. Also, the “VIM1 KP599644 MITC95” value in assay [3] came to 12.5 µM.
